Measured values reported in patent publication US20160060260A1, “BROMODOMAIN INHIBITORS FOR TREATING DISEASE” (Board of Regents, The University of Texas System, priority 2014, published 2016).

The molecules below were run against T1, Recombinant human His-tagged Trim24-PHD-bromodomain (Homo sapiens, UniProt O15164) (assay: Trim24 AlphaScreen Assay). Details: 5 nM Trim24 protein, 15 nM biotinylated H3K23ac (1-33aa) peptide.
T1 construct: Recombinant human His-tagged Trim24-PHD-bromodomain (produced in-house); made in house
T1 sequence (O15164 824-1006 limits assumed): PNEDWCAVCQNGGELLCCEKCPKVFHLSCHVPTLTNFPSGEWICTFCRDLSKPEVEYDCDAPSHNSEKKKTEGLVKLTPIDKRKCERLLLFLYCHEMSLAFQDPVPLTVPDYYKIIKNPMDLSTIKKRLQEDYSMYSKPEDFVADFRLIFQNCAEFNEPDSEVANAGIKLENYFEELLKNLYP
Assay type: binding
Summary of the method: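 His-tagged Trim24-PHD-bromodomain, biotinylated H3K23ac (1-33aa) peptide and compound incubated 1 h at room temperature in 50 mM Hepes pH 7.5, 100 mM NaCl, 0.12 mM Triton X-100.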

Compound | IC50 [nM]
CCCOc1cc(C#N)cc(Oc2cc3c(cc2NS(=O)(=O)c2cn(C)c(C)n2)n(C)c(=O)n3C)c1 [Example 107, N-(6-(3-cyano-5-propoxyphenoxy)-1,3-dimethyl-2-oxo-2,3-dihydro-1H-benzo[d]imidazol-5-yl)-1,2-dimethyl-1H-imidazole-4-sulfonamide] | 10 to 100
CCCOc1cc(C#N)cc(Oc2cc3c(cc2NS(=O)(=O)c2cn(C)cn2)n(C)c(=O)n3C)c1 [Example 108, N-(6-(3-cyano-5-propoxyphenoxy)-1,3-dimethyl-2-oxo-2,3-dihydro-1H-benzo[d]imidazol-5-yl)-1-methyl-1H-imidazole-4-sulfonamide] | 10 to 100
CCCOc1cc(Oc2cc3c(cc2NS(=O)(=O)c2cn(C)cn2)n(C)c(=O)n3C)ccc1OC [Example 114, N-(6-(4-methoxy-5-propoxyphenoxy)-1,3-dimethyl-2-oxo-2,3-dihydro-1H-benzo[d]imidazol-5-yl)-1-methyl-1H-imidazole-4-sulfonamide] | > 1000
Cn1cnc(S(=O)(=O)Nc2cc3c(cc2Oc2cc(OCC4CC4)cc(OCC4CC4)c2)n(C)c(=O)n3C)c1 [Example 117, N-(6-(3,5-bis(cyclopropylmethoxy)phenoxy)-1,3-dimethyl-2-oxo-2,3-dihydro-1H-benzo[d]imidazol-5-yl)-1-methyl-1H-imidazole-4-sulfonamide] | 10 to 100
CCCOc1cc(OCC2CC2)cc(Oc2cc3c(cc2NS(=O)(=O)c2cccnc2)n(C)c(=O)n3C)c1 [Example 118, N-(6-(3-(cyclopropylmethoxy)-5-propoxyphenoxy)-1,3-dimethyl-2-oxo-2,3-dihydro-1H-benzo[d]imidazol-5-yl)pyridine-3-sulfonamide] | 10 to 100
CCCOc1cc(OCCCCCCNC(=O)OC(C)(C)C)cc(Oc2cc3c(cc2NS(=O)(=O)c2cn(C)cn2)n(C)c(=O)n3C)c1 [Example 119, tert-butyl (6-(3-((1,3-dimethyl-6-((1-methyl-1H-imidazole)-4-sulfonamido)-2-oxo-2,3-dihydro-1H-benzo[d]imidazol-5-yl)oxy)-5-propoxyphenoxy)hexyl)carbamate] | 100 to 1000
COCCCOc1cc(C#N)cc(Oc2cc3c(cc2NS(=O)(=O)c2ccn(C)n2)n(C)c(=O)n3C)c1 [Example 121, N-(6-(3-cyano-5-(3-methoxypropoxy)phenoxy)-1,3-dimethyl-2-oxo-2,3-dihydro-1H-benzo[d]imidazol-5-yl)-1-methyl-1H-pyrazole-3-sulfonamide] | 100 to 1000
COCCCOc1cc(OCCCOC)cc(Oc2cc3c(cc2NS(=O)(=O)c2cn(C)c(C)n2)n(C)c(=O)n3C)c1 [Example 123, N-(6-(3,5-bis(3-methoxypropoxy)phenoxy)-1,3-dimethyl-2-oxo-2,3-dihydro-1H-benzo[d]imidazol-5-yl)-1,2-dimethyl-1H-imidazole-4-sulfonamide] | 10 to 100
CCCOc1cc(OCCCC#N)cc(Oc2cc3c(cc2NS(=O)(=O)c2cn(C)c(C)n2)n(C)c(=O)n3C)c1 [Example 124, N-(6-(3-(3-cyanopropoxy)-5-propoxyphenoxy)-1,3-dimethyl-2-oxo-2,3-dihydro-1H-benzo[d]imidazol-5-yl)-1,2-dimethyl-1H-imidazole-4-sulfonamide] | 10 to 100
COc1ccc(S(=O)(=O)Nc2cc3c(cc2Oc2cccc(OCC4CC4)c2)n(C)c(=O)n3C)cc1OC [Example 127, N-(6-(3-(cyclopropylmethoxy)phenoxy)-1,3-dimethyl-2-oxo-2,3-dihydro-1H-benzo[d]imidazol-5-yl)-3,4-dimethoxybenzenesulfonamide] | 10 to 100
Cn1c(=O)n(C)c2cc(Oc3cccc(OCC4CC4)c3)c(NS(=O)(=O)c3cccnc3)cc21 [Example 128, N-(6-(3-(cyclopropylmethoxy)phenoxy)-1,3-dimethyl-2-oxo-2,3-dihydro-1H-benzo[d]imidazol-5-yl)pyridine-3-sulfonamide] | 10 to 100
Cc1nc(S(=O)(=O)Nc2cc3c(cc2Oc2ccc(F)c(OCC4CC4)c2)n(C)c(=O)n3C)cn1C [Example 130, N-(6-(3-(cyclopropylmethoxy)-4-fluorophenoxy)-1,3-dimethyl-2-oxo-2,3-dihydro-1H-benzo[d]imidazol-5-yl)-1,2-dimethyl-1H-imidazole-4-sulfonamide] | > 1000
CCCOc1ccc(F)c(Oc2cc3c(cc2NS(=O)(=O)c2cn(C)c(C)n2)n(C)c(=O)n3C)c1 [Example 133, N-(6-(2-fluoro-5-propoxyphenoxy)-1,3-dimethyl-2-oxo-2,3-ddihydro-1H-benzo[d]imidazol-5-yl)-1,2-dimethyl-1H-imidazole-4-sulfonamide] | 100 to 1000
CCCOc1ccc(F)c(Oc2cc3c(cc2NS(=O)(=O)c2cccnc2)n(C)c(=O)n3C)c1 [Example 135, N-(6-(2-fluoro-5-propoxyphenoxy)-1,3-dimethyl-2-oxo-2,3-dihydro-1H-benzo[d]imidazol-5-yl)pyridine-3-sulfonamide] | 10 to 100
CCCOc1cc(OCCCOC)cc(Oc2cc3c(cc2NS(=O)(=O)c2cccnc2)n(C)c(=O)n3C)c1 [Example 137, N-(6-(3-(3-methoxypropoxy)-5-propoxyphenoxy)-1,3-dimethyl-2-oxo-2,3-dihydro-1H-benzo[d]imidazol-5-yl)pyridine-3-sulfonamide] | 10 to 100

Second part, the molecule after the results:

IC50 [nM] | Compound
10 to 100 | CCCOc1cc(Oc2cc3c(cc2NS(=O)(=O)c2cn(C)cn2)n(C)c(=O)n3C)ccc1F [Example 105, N-(6-(4-fluoro-3-propoxyphenoxy)-1,3-dimethyl-2-oxo-2,3-dihydro-1H-benzo[d]imidazol-5-yl)-1-methyl-1H-imidazole-4-sulfonamide]
100 to 1000 | C=CCOc1cccc(S(=O)(=O)Nc2cc3c(cc2Oc2cccc(OCCC)c2)n(C)c(=O)n3C)c1 [Example 106, 3-(allyloxy)-N-(1,3-dimethyl-2-oxo-6-(3-propoxyphenoxy)-2,.3-dihydro-1H-benzo[d]imidazol-5-yl)benzenesulfonamide]
10 to 100 | CCCOc1cc(C#N)cc(Oc2cc3c(cc2NS(=O)(=O)c2ccc(OC)c(OC)c2)n(C)c(=O)n3C)c1 [Example 109, N-(6-(3-cyano-5-propoxyphenoxy)-1,3-dimethyl-2-oxo-2,3-dihydro-1H-benzo[d]imidazol-5-yl)-3,4-dimethoxybenzenesulfonamide]
> 1000 | CCCOc1cccc(Oc2cc3c(cc2NS(=O)(=O)c2cn(C)cn2)n(C)c(=O)n3C)c1Cl [Example 111, N-(6-(2-chloro-3-propoxyphenoxy)-1,3-dimethyl-2-oxo-2,3-dihydro-1H-benzo[d]imidazol-5-yl)-1-methyl-1H-imidazole-4-sulfonamide]
100 to 1000 | CCCOc1cc(Oc2cc3c(cc2NS(=O)(=O)c2cn(C)cn2)n(C)c(=O)n3C)ccc1Cl [Example 112, N-(6-(4-chloro-3-propoxyphenoxy)-1,3-dimethyl-2-oxo-2,3-dihydro-1H-benzo[d]imidazol-5-yl)-1-methyl-1H-imidazole-4-sulfonamide]
100 to 1000 | CCCOc1ccc(OC)c(Oc2cc3c(cc2NS(=O)(=O)c2cn(C)cn2)n(C)c(=O)n3C)c1 [Example 113, N-(6-(2-methoxy-5-propoxyphenoxy)-1,3-dimethyl-2-oxo-2,3-dihydro-1H-benzo[d]imidazol-5-yl)-1-methyl-1H-imidazole-4-sulfonamide]
100 to 1000 | COCCCOc1cc(C#N)cc(Oc2cc3c(cc2NS(=O)(=O)c2cn(C)c(C)n2)n(C)c(=O)n3C)c1 [Example 120, N-(6-(3-cyano-5-(3-methoxypropoxy)phenoxy)-1,3-dimethyl-2-oxo-2,3-dihydro-1H-benzo[d]imidazol-5-yl)-1,2-dimethyl-1H-imidazole-4-sulfonamide]
10 to 100 | COCCCOc1cc(OCCCOC)cc(Oc2cc3c(cc2NS(=O)(=O)c2ccc(OC)c(OC)c2)n(C)c(=O)n3C)c1 [Example 122, N-(6-(3,5-bis(3-methoxypropoxy)phenoxy)-1,3-dimethyl-2-oxo-2,3-dihydro-1H-benzo[d]imidazol-5-yl)-3,4-dimethoxybenzenesulfonamide]
10 to 100 | CCCOc1cc(OCC2CC2)cc(Oc2cc3c(cc2NS(=O)(=O)c2cn(C)cn2)n(C)c(=O)n3C)c1 [Example 126, N-(6-(3-(cyclopropylmethoxy)-5-propoxyphenoxy)-1,3-dimethyl-2-oxo-2,3-dihydro-1H-benzo[d]imidazol-5-yl)-1-methyl-1H-imidazole-4-sulfonamide]
100 to 1000 | COc1ccc(S(=O)(=O)Nc2cc3c(cc2Oc2ccc(F)c(OCC4CC4)c2)n(C)c(=O)n3C)cc1OC [Example 131, N-(6-(3-(cyclopropylmethoxy)-4-fluorophenoxy)-1,3-dimethyl-2-oxo-2,3-dihydro-1H-benzo[d]imidazol-5-yl)-3,4-dimethoxybenzenesulfonamide]
100 to 1000 | Cn1c(=O)n(C)c2cc(Oc3cccc(OCC4CC4)c3)c(NS(=O)(=O)c3cn[nH]c3)cc21 [Example 132, N-(6-(3-(cyclopropylmethoxy)phenoxy)-1,3-dimethyl-2-oxo-2,3-dihydro-1H-benzo[d]imidazol-5-yl)-1H-pyrazole-4-sulfonamide]
10 to 100 | CCCOc1ccc(F)c(Oc2cc3c(cc2NS(=O)(=O)c2ccc(OC)c(OC)c2)n(C)c(=O)n3C)c1 [Example 134, N-(6-(2-fluoro-5-propoxyphenoxy)-1,3-dimethyl-2-oxo-2,3-dihydro-1H-benzo[d]imidazol-5-yl)-3,4-dimethoxybenzenesulfonamide]
10 to 100 | Cc1n[nH]c(C)c1S(=O)(=O)Nc1cc2c(cc1Oc1cccc(OCC3CC3)c1)n(C)c(=O)n2C [Example 136, N-(6-(3-(cyclopropylmethoxy)phenoxy)-1,3-dimethyl-2-oxo-2,3-dihydro-1H-benzo[d]imidazol-5-yl)-3,5-dimethyl-1H-pyrazole-4-sulfonamide]
